The compounds below were run against T1, MMP-14 (Homo sapiens, UniProt P50281) (assay: In vitro MMP inhibition, IC50 determination (fluorogenic substrate I)). Conditions: value in parenthesis; read-out: MMP-14 (IC-50).
T1 construct: The catalytic domain enzyme was expressed in E. coli inclusion bodies, solubilized in urea; made in house
Format: biochemical
Procedure: Several hydroxamic acids and salts thereof were analyzed in in vitro assays to determine their ability to inhibit the MMP cleavage of peptide substrates. […] and IC50 constants were calculated from the assayed hydroxamic acid-MMP interactions. Human recombinant MMP-1, MMP-2, MMP-9, MMP-13, and MMP-14 were used in this assay. All enzymes were prepared in Assignee's laboratories following usual laboratory procedures. Protocols for the preparation and use of these enzymes are available in the scientific literature. See, e.g., Enzyme Nomenclature (Academic Press, San Diego, Calif., 1992) (and the citations therein). See also, Freije et al., “Molecular cloning and expression of collagenase-3, a novel human matrix metalloproteinase produced by breast carcinomas,” J Biol. Chem., 269(24), 16766-16773 (1994). The MMP-14 full length cDNA was provided by Dr. Gregory Goldberg of Washington University (St. Louis, Mo.). The catalytic domain enzyme was expressed in E. coli inclusion bodies, solubilized in urea, purified on a preparative […] reverse phase HPLC column, and then refolded in the presence of zinc acetate and purified for use. All MMPs were activated using 4-aminophenylmercuric acetate (“APMA”, Sigma Chemical, St. Louis, Mo.) or trypsin. MMP-9 also was activated using human recombinant MMP-3 (purified in Assignee's laboratory following standard cloning and purification techniques). […] Substrate (I) was purchased from Baychem (Redwood City, Calif.), and substrate II was prepared Assignee's laboratory. Substrate I was used in the IC50 determination assays, while substrate II was used in the Ki determination assays. In the absence of MMP inhibitory activity, either substrate is cleaved at the Gly-Leu peptide bond. […] The stock solutions of the assayed hydroxamic acids (or salts thereof) were prepared in 1% dimethyl sulfoxide (DMSO). […] The experiment controls contained the same amount of Buffer A/DMSO as the assayed sample, but contained no hydroxamic acid (or salt thereof). The assays from which the IC50 determinations were made were performed as follows. […] Louis, Mo.). The assayed hydroxamic acid samples were incubated in MicrofluorTM White Plates (Dynatech, Chantilly, Va.) and analyzed on a Perkin Elmer […] plate reader (Norwalk, Conn.). The excitation wavelength was 328 nm, and the emission wavelength-415 nm. […] As stated in the previous paragraph, samples containing varying concentrations of the same assayed hydroxamic acid were prepared. Inhibition was measured as a reduction in fluorescent intensity as a function of MMP inhibitor concentration. […] All values in Table 2 are given in nM units. The IC50 measurements are in parenthesis.

Q: With CCCCCCc1ccc(N2CCN(S(=O)(=O)C3(C(=O)NO)CCN(CCOC)CC3)CC2)cc1 [Example 199] as the compound, how does the IC50 read?
A: 6710 nM

Q: For CCCc1ccc(N2CCN(S(=O)(=O)C3(C(=O)NO)CCN(CCOC)CC3)CC2)cc1 [Example 200], which IC50 is on record?
A: 1490 nM

Q: For COCCN1CCC(C(=O)NO)(S(=O)(=O)N2CCN(c3ccc(Br)cc3)CC2)CC1 [Example 201], which IC50 is on record?
A: 301 nM

Q: How did the IC50 turn out when COCCN1CCC(C(=O)NO)(S(=O)(=O)N2CCN(c3ccc(OC(F)(F)F)cc3)CC2)CC1 [Example 202] was run?
A: 1170 nM

Q: Which IC50 does the source give for O=C(NO)C1(S(=O)(=O)N2CCN(c3ccc(OC(F)(F)F)cc3)CC2)CCN(C2CC2)CC1 [Example 203] here?
A: 648 nM

Reference: patent US20050209278A1, “Piperidinyl- and piperazinyl-sulfonylmethyl hydroxamic acids and their use as protease inhibitors” (priority 2002, published 2005)
